This passage reports melting point results from a melting point compilation (Tetko et al.; mined from patent text by program, amines drawn as free bases though some values may be those of a salt).

For `Cc1cn(-c2ccc(N)c(C)c2)c(C)n1`, the melting point (usually the temperature of the solid-liquid transition) was in the range of 92 to 96 °C.

On to `NS(=O)(=O)c1ccc(Cl)c(NC(=O)c2cnn3c(C(F)(F)F)cc(-c4ccc(C(F)(F)F)cc4)nc23)c1`, for which the melting point was 300 °C. Regarding `Cc1ccc(S(=O)(=O)OCC2Cc3cc(Cl)c4c(c3O2)CCC4)cc1` (centres undefined), the melting point lay within 82 to 84 °C. For `O=C(NCCO)c1cccc(-c2ccc3c(n2)C(Oc2ccc(Cl)cc2Cl)CC3)c1` (centres undefined) the value was 181 to 182 °C; for `O=C(C1=C(Nc2ccccc2)CCC1)c1ccccc1Br`, 106 to 108 °C. Take `O=C(CSCc1ccc(Cl)cc1Cl)NO`: the melting point was 116 °C. For `CN(C)CCOC(=O)C(=O)c1ccc(OCCOc2ccc3ccccc3c2)cc1` the value was 93 to 94 °C. The molecule `Cc1ccccc1OCCCc1oc(-n2ccnc2C)nc1-c1ccc(Cl)cc1` gave a melting point of 111 to 112 °C.

As to `CC(C)(C)OC(=O)NC1CCCCCC=CC2CC2(C(=O)NS(=O)(=O)C2CC2)NC(=O)C2CC(OC(=O)c3ccc(CC(=O)O)cc3)CN2C1=O` (centres undefined), the melting point is 154 to 156 °C.

With `O=C(Oc1ccc(F)cc1)N1CCN2C(=O)OC(c3ccccc3)(c3ccccc3)C2C1` (centres undefined), the melting point was 188 to 189 °C. For `CC(C)n1c(=O)c(C(=O)O)cc2ccccc21` the value was 168 to 169 °C; for `Cc1nc(N)c2nc(O)n(Cc3cc(-c4ccc(F)cc4)no3)c2c1C`, 250 °C.

`Cc1cc(C(C)(C)C)c(O)c(C)c1CC(=O)O` returned a melting point of 161 to 165 °C. To `CCOCC1OC(n2cc(C(F)(F)F)c(=O)n(C(=O)c3ccccc3)c2=O)CC1O` (centres undefined) belongs 156 to 157 °C. `CCOC(=O)c1cc(C=O)c2ccccn2c1=O` gave a melting point of 179 to 181 °C. For `COc1cc(N)c(Cl)cc1C(=O)N[C@H]1CCN(CCO)C[C@H]1OC` (relative stereo) the value was 153 °C; for `CC1(C)COC(CCc2ccc(N)cc2)OC1`, 93.5 to 94.5 °C; for `CC(=O)NC[C@H]1CN(c2ccc(C(=O)c3cnc4ccc(Cl)cn34)cc2)C(=O)O1`, 234 to 235 °C.

In the case of `CCC1CN(C2C(=O)N(c3c(Cl)cc(Cl)cc3Cl)N=C2NC(=O)c2cccc(NC(=O)COc3ccc(C(C)(C)CC)cc3C(C)(C)CC)c2)CCC1C` (centres undefined), the melting point lay in the range of 145 to 155 °C.

In turn, `Cn1nc(-c2ccccc2)cc1-c1ccccc1` showed a melting point of 52 to 53 °C.

On to `C=CCc1ccc(C=CC(=O)c2ccc(OCC=C(C)C)cc2OCC(=O)O)cc1`, for which the melting point lay within 125 to 126 °C.

`CCNc1nc(C)c(-c2ccnc(Nc3ccc(N4CCCCC4)c(C)c3)n2)s1` displayed a melting point of 213 to 214 °C. Turning to `CCOc1nn(Cc2ccc(OCc3nc(-c4ccccc4)ccc3Cl)cc2)cc1CCC(=O)O`, the melting point was 120 to 121 °C. For `O=C1Cn2cccc2Sc2ccc(Cl)cc21` the value was 106 to 107 °C. The molecule `CCCN1CC(C)=C(C)C2=C1N1CN(OC)C=C1C=N2` came in with a melting point of 91 to 92.5 °C. For `COc1cccc(C(O)c2ccncc2)c1OC` (centres undefined) the value was 126 to 128 °C; for `CCc1cccc(C(=O)NN(C(=O)c2cc(C)cc(C)c2)C(C)(C)C)c1C`, 167 to 169 °C. `COC(=O)C[C@H](O)CC(=O)C=Cc1c(-c2ccc(F)cc2)c(-c2ccc(F)cc2)c(C(=O)Nc2ccc(S(N)(=O)=O)cc2)n1C(C)C` showed a melting point of 109 to 110 °C. To `Cc1oc(-c2ccccc2)nc1COc1ccc(Cn2cc(CCC(=O)O)c(-c3ccc(C(F)(F)F)cc3)n2)cc1` belongs 149 to 150 °C; to `CCSc1nc(N)ccc1[N+](=O)[O-]`, 132 °C; to `CC(O)c1ccc(C(O)C(C)(C)C)cc1` (centres undefined), 118 to 121 °C. For `NCc1ccc(N2CCN(c3ccc(OCC(=O)O)cc3)C2=O)cc1` the value was more than 250 °C; for `CC1(C)OC[C@@H]([C@@H]2CC(=O)N2)O1`, 91 to 92 °C; for `COC(=O)c1cccc2c1c1c(OC)c3c(cc1n2Cc1ccccc1)CCCC3`, 144 to 146 °C. In turn, `Cc1c(-c2ccccc2)oc2cc(OCC3CO3)ccc2c1=O` (centres undefined) displayed a melting point of 231 to 235 °C. To `Nc1nc2c(c(Nc3ccc(Cl)cc3)n1)-c1ccccc1C2` belongs 216 to 217 °C; to `O=C(O)Cc1ccccc1CBr`, 110 °C. To `CC(C)(C)OC(=O)N[C@@H](CC1CCCCC1)[C@@H](O)[C@@H](O)C1CC1` belongs 83 to 85 °C; to `O=C(O)CCC(CNCC(CO)(NC(=O)OC1C2CC3CC(C2)CC1C3)C(=O)c1c[nH]c2ccccc12)c1ccccc1` (centres undefined), 117 to 122 °C; to `CS(=O)c1ccnc(-c2nc(=O)c3ccccc3s2)c1` (centres undefined), 205 to 206 °C. With `CCOC(c1cccc(OCc2nc(-c3ccccc3)oc2C)c1)c1ccc(OC)cc1OCC(=O)O` (centres undefined), the melting point was in the range of 129 to 130 °C.

`O=C(c1ccc(C#Cc2ccccc2)cc1)c1ccc(Oc2ccccc2)cc1`: the melting point is 166 °C.

The molecule `[N-]=[N+]=NCc1cccc(C(=O)c2ccc(Cl)cc2)c1` registered a melting point of 43 to 45 °C. In turn, `O=C1CCC2(CCC(=O)c3cc(Cl)ccc32)C(=O)N1` (centres undefined) had a melting point of 282 to 284 °C. The molecule `COc1cc(OC)nc(Oc2cccc(O)c2C(=O)OCc2ccccc2)n1` returned a melting point of 63 to 65 °C. For `Nc1nc2ccccc2c2c1ncn2CCOCCCc1cccs1` the value was 130 to 132 °C; for `CN1C(=O)Cc2cc(C3=NNC(=O)CC3)ccc21`, 261 to 264 °C; for `CNC(=O)ON=Cc1nn(-c2c(Cl)cc(C(F)(F)F)cc2Cl)c(N)c1S(C)=O` (centres undefined), 146 to 147 °C. As to `CN(C)c1ccc(/C=C/c2c(F)cccc2F)cc1`, the melting point lay within 112 to 113 °C.

`COc1cc(OC)cc(-c2ncn(-c3cc(OC)c(OC)c(OC)c3)c2-c2ccc(N(C)C)cc2)c1` showed a melting point of 151 to 154 °C.

As for `CS(=O)(=O)Nc1ccc2c(c1)S(=O)(=O)NC(C1CCCCC1)N2` (centres undefined), the melting point lay in the range of 255 to 258 °C. As for `NNC(=O)Cn1c(=S)sc2ccccc21`, the melting point lay within 214 to 215 °C. Take `CCCCCOc1ccc(-c2ncc(C#N)c(Cl)n2)cc1`: the melting point fell in the range of 140 to 142 °C. To `CCN(C(C)=O)c1cccc(-c2ccn3ncc(C#N)c3n2)c1` belongs 194 to 196 °C.

Turning to `Nc1ccc2nc(-c3ccccc3)oc2n1`, the melting point is 210 °C. `NCCCN1CCN(C(c2ccccc2)c2ccccc2)CC1` had a melting point of 62 to 63 °C. Molecule `CC1(C)Oc2cc3nonc3cc2C(NC(=O)CCl)C1O` (centres undefined) returned a melting point of 232 to 234 °C. For `COc1cccnc1CO` the value was 72.5 to 73.5 °C; for `COc1c(Cl)ccc(-c2cc(N)c(Cl)c(C(=O)NOC(C)(C)C)n2)c1F`, 184 to 187 °C. `O=C(O)Cc1c(F)c(F)nc(F)c1Cl` gave a melting point of 127 to 129 °C. For the molecule `COC(=O)CCc1ccc(C(c2cc(F)ccc2F)S(=O)(=O)c2ccc(Cl)cc2)nc1` (centres undefined), the melting point is 121 to 123 °C.

`O=C(O)c1ccc(-n2cc[nH]c2=S)cc1`: the melting point was in the range of 194 to 196 °C. Molecule `COC(=O)C1=C(C)NC(C)=C(C(=O)c2ccco2)C1c1ccccc1[N+](=O)[O-]` (centres undefined) gave a melting point of 90 to 92 °C.

Molecule `CCOC(=O)N1Cc2cc(NN=C(C)C)nnc2C(C)C1` (centres undefined) registered a melting point of 140 to 142 °C. Turning to `CCOCc1nc2c(N)nc3ccccc3c2n1NCCCNC(=O)Nc1ccccc1`, the melting point lay in the range of 177 to 179 °C. In turn, `Cc1nc2c(OCCNCc3ccccc3)cccc2[nH]1` came in with a melting point of more than 250 °C. For the molecule `CCOC(=O)c1cnc2sc(Br)c(C)c2c1O`, the melting point lay in the range of 214 to 216 °C. To `CC(NNC=NN)C(=O)O` (centres undefined) belongs 239 to 241 °C; to `CC(=O)c1ccc(C2COc3c(C)c(C)c(NC(=O)CC(C)(C)C)c(C)c32)cc1` (centres undefined), 181 to 182 °C; to `COC(=O)Nc1ccc(C(=O)O)cc1`, 195 to 196 °C. As for `COC(=O)c1cc2cc(-c3ccc(C)cc3)ccc2nc1C`, the melting point lay within 84 to 87 °C. Turning to `CC(C)c1cc2ncccc2cc1Oc1cnc(NC(CO)CO)nc1N`, the melting point fell in the range of 172 to 174 °C. To `CC(=O)OC1CSC(Oc2cncc(-c3cccc(C#N)c3)c2)C(OC(C)=O)C1OC(C)=O` (centres undefined) belongs 130 to 131 °C; to `Cc1nc(NC(=O)c2cc(F)cc(F)c2)sc1C(=O)NCc1ccccc1`, 84 to 86 °C. For `Clc1ccc(CC(Cn2cncn2)Cn2cncn2)cc1` the value was 107 to 108 °C; for `CC(SC(=O)c1ccccc1)C(=O)c1ccccc1NCC(=O)O` (centres undefined), 149 to 151 °C; for `COc1ccc(/C=C/C(=O)Nc2ccccc2C(=O)OCC(=O)OC(C)(C)C)cc1OC`, 116 to 118 °C.

As for `Cc1c(-c2ccc(O)cc2O)c(=O)oc2cc(F)ccc12`, the melting point fell in the range of 266 to 268 °C. In turn, `CCCC(=O)NCCC1=CCc2ccc(OC)cc21` returned a melting point of 64 to 67 °C.

`Nc1nc2ccc3cc(S(=O)(=O)Nc4ccc(C(=O)N[C@@H](CCC(=O)O)C(=O)O)cc4)c(Br)cc3c2c(=O)[nH]1` displayed a melting point of 238 to 242 °C. In the case of `O[C@@H]1CN(CC2CC2)CC[C@@H]1c1ccccc1` (relative stereo), the melting point lay within 94 to 97 °C.

Regarding `CCCc1ncc(CO)c(NCc2ccc(-c3ccccc3-c3nnnn3C(c3ccccc3)(c3ccccc3)c3ccccc3)cc2)n1`, the melting point lay in the range of 134 to 137 °C.

The molecule `CCn1ncc2c(O)c(CCc3ccccc3)c(C(=O)O)nc21` returned a melting point of 250 to 251 °C. For `C=CCCCCCCCCN=C=O` the value was 94 to 97 °C; for `N#Cc1nn(-c2c(Cl)cc(C(F)(F)F)cc2Cl)c(Cl)c1C#CBr`, 153 °C; for `CNC(=S)NS(=O)(=O)c1cc(CCNC(=O)/C=C/c2cccs2)ccc1OCCc1ccccc1`, 74 °C.

As for `O=c1ccc2ccc(OCCCCN3CCN(c4cccc5cc(Cl)ccc45)CC3)nc2[nH]1`, the melting point fell in the range of 208 to 209 °C.

For `CNc1nc(Br)cc(Sc2ccccc2)n1`, the melting point was in the range of 122 to 124 °C. As for `O=C(O)c1ccc(OCC(O)c2cc3cc(Cl)ccc3o2)cc1` (centres undefined), the melting point was 157 to 159 °C.
